Literature values as cited in patent publication US10188772B2, “Drug delivery medical device” (Micell Technologies, Inc., priority 2012, dated 2019).

Target: FKBP12 (Homo sapiens, UniProt P62942)
Sequence (P62942 whole entry, species assumed): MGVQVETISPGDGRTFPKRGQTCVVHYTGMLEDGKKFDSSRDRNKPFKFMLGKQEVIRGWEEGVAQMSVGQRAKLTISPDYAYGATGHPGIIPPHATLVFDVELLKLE

Row | Compound | FKBP12 binding
1 | C=CC[C@@H]1/C=C(\C)C[C@H](C)C[C@H](OC)[C@H]2O[C@@](O)(C(=O)C(=O)N3CCCC[C@H]3C(=O)O[C@H](/C(C)=C/[C@@H]3CC[C@@H](O)[C@H](OC)C3)[C@H](C)[C@@H](O)CC1=O)[C@H](C)C[C@@H]2OC [Tacrolimus] | 0.2 to 0.4 nM
2 | CO[C@H]1C[C@@H]2CC[C@@H](C)[C@@](O)(O2)C(=O)C(=O)N2CCCC[C@H]2C(=O)O[C@H]([C@H](C)C[C@@H]2CC[C@@H](OC(=O)C(C)(CO)CO)[C@H](OC)C2)CC(=O)[C@H](C)/C=C(\C)[C@@H](O)[C@@H](OC)C(=O)[C@H](C)C[C@H](C)/C=C/C=C/C=C/1C [Temsirolimus, 42-[3-hydroxy-2-(hydroxymethyl)-2-methylpropanoate]rapamycin] | about the same as Sirolimus
3 | CO[C@H]1C[C@@H]2CC[C@@H](C)[C@@](O)(O2)C(=O)C(=O)N2CCCC[C@H]2C(=O)O[C@H]([C@H](C)C[C@@H]2CC[C@H](n3cnnn3)[C@H](OC)C2)CC(=O)[C@H](C)/C=C(\C)[C@@H](O)[C@@H](OC)C(=O)[C@H](C)C[C@H](C)/C=C/C=C/C=C/1C [Zotarolimus] | 2.0 to 3.2 nM

Further lines, results first:

Row | FKBP12 binding | Compound
4 | 1.8 to 2.6 nM | CO[C@H]1C[C@@H]2CC[C@@H](C)[C@@](O)(O2)C(=O)C(=O)N2CCCC[C@H]2C(=O)O[C@H]([C@H](C)C[C@@H]2CC[C@@H](OCCO)[C@H](OC)C2)CC(=O)[C@H](C)/C=C(\C)[C@@H](O)[C@@H](OC)C(=O)[C@H](C)C[C@H](C)/C=C/C=C/C=C/1C [Everolimus, 40-O-(2-Hydroxyethyl)rapamycin]
5 | about 1.2 nM | CC[C@@H]1/C=C(\C)C[C@H](C)C[C@H](OC)[C@H]2O[C@@](O)(C(=O)C(=O)N3CCCC[C@H]3C(=O)O[C@H](/C(C)=C/[C@@H]3CC[C@H](Cl)[C@H](OC)C3)[C@H](C)[C@@H](O)CC1=O)[C@H](C)C[C@@H]2OC [Pimecrolimus]
